Test results: PubChem BioAssay AID1963449 (Molecular Pharmacology Branch, DTP, NCI, 2024)

Tested on: 596521-263-R-J1-PDC complex spheroid growth
Test: Anticancer human tumor 596521-263-R-J1-PDC patient-derived soft tissue sarcoma cell line growth inhibition [Asc]
Details: for IC50: curve of first compound; for viability, T/C: stronger effect = lower value
Procedure, shortened: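 Complex spheroids combining tumor cells with HUVEC endothelial cells and human MSCs, at 37 degrees C, 5% CO2; agents tested alone or combined, half-log dilutions from at or near clinical Cmax, or 10 microM if Cmax unknown.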
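Also: spheroids exposed to compounds for 7 days.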

Q: Which results are given for `C#Cc1c(F)ccc2cc(O)cc(-c3ncc4c(N5CC6CCC(C5)N6)nc(OCC56CCCN5CC(F)C6)nc4c3F)c12` (centres undefined) + Cc1c(S(C)(=O)=O)c(-c2cc(F)cc(N3CCN(c4ccc(NS(=O)(=O)c5ccc(NC(CCN6CCC(C(=O)OCCCP(=O)(O)O)CC6)CSc6ccccc6)c(S(=O)(=O)C(F)(F)F)c5)cc4)CC3)c2)c(-c2ccc(Cl)cc2)n1C(C)C?
A: IC50 (second compound 0.0316 µM): > 10000 nM; IC50 (second compound 0.1 µM): > 10000 nM; IC50 (second compound 0.316 µM): > 10000 nM; IC50 (second compound 1 µM): > 10000 nM; IC50 (second compound 3.16 µM): > 10000 nM; IC50 (second compound 10 µM): 1680 nM; viability, T/C (second compound 0.0316 µM, first compound 0.0316 µM): 84.7%; viability, T/C (second compound 0.0316 µM, first compound 0.1 µM): 89.1%; viability, T/C (second compound 0.0316 µM, first compound 0.316 µM): 91%; viability, T/C (second compound 0.0316 µM, first compound 1 µM): 98.1%; viability, T/C (second compound 0.0316 µM, first compound 3.16 µM): 111%; viability, T/C (second compound 0.0316 µM, first compound 10 µM): 85.7%; viability, T/C (second compound 0.1 µM, first compound 0.0316 µM): 85.9%; viability, T/C (second compound 0.1 µM, first compound 0.1 µM): 107%; viability, T/C (second compound 0.1 µM, first compound 0.316 µM): 107%; viability, T/C (second compound 0.1 µM, first compound 1 µM): 95.5%; viability, T/C (second compound 0.1 µM, first compound 3.16 µM): 95.6%; viability, T/C (second compound 0.1 µM, first compound 10 µM): 87.8%; viability, T/C (second compound 0.316 µM, first compound 0.0316 µM): 82.2%; viability, T/C (second compound 0.316 µM, first compound 0.1 µM): 81.8%; viability, T/C (second compound 0.316 µM, first compound 0.316 µM): 76.9%; viability, T/C (second compound 0.316 µM, first compound 1 µM): 83.6%; viability, T/C (second compound 0.316 µM, first compound 3.16 µM): 100%; viability, T/C (second compound 0.316 µM, first compound 10 µM): 68.4%; viability, T/C (second compound 1 µM, first compound 0.0316 µM): 83.7%; viability, T/C (second compound 1 µM, first compound 0.1 µM): 84.2%; viability, T/C (second compound 1 µM, first compound 0.316 µM): 79.1%; viability, T/C (second compound 1 µM, first compound 1 µM): 83.4%; viability, T/C (second compound 1 µM, first compound 3.16 µM): 69.3%; viability, T/C (second compound 1 µM, first compound 10 µM): 60.5%; viability, T/C (second compound 3.16 µM, first compound 0.0316 µM): 59.4%; viability, T/C (second compound 3.16 µM, first compound 0.1 µM): 65.3%; viability, T/C (second compound 3.16 µM, first compound 0.316 µM): 61%; viability, T/C (second compound 3.16 µM, first compound 1 µM): 57.1%; viability, T/C (second compound 3.16 µM, first compound 3.16 µM): 60.4%; viability, T/C (second compound 3.16 µM, first compound 10 µM): 42.6%; viability, T/C (second compound 10 µM, first compound 0.0316 µM): 48.1%; viability, T/C (second compound 10 µM, first compound 0.1 µM): 47.8%; viability, T/C (second compound 10 µM, first compound 0.316 µM): 55.1%; viability, T/C (second compound 10 µM, first compound 1 µM): 60.7%; viability, T/C (second compound 10 µM, first compound 3.16 µM): 43.7%; viability, T/C (second compound 10 µM, first compound 10 µM): 37.2%

Q: With `Cc1nc(N2CCC3(CC2)COC(C)C3N)c(CO)nc1Sc1ccnc(N)c1Cl` (centres undefined) + Cc1c(S(C)(=O)=O)c(-c2cc(F)cc(N3CCN(c4ccc(NS(=O)(=O)c5ccc(NC(CCN6CCC(C(=O)OCCCP(=O)(O)O)CC6)CSc6ccccc6)c(S(=O)(=O)C(F)(F)F)c5)cc4)CC3)c2)c(-c2ccc(Cl)cc2)n1C(C)C as the compound, how does the IC50 (second compound 0.0316 µM) read?
A: Its IC50 is > 3000 nM.

Q: What about the IC50 (second compound 0.1 µM) of the same compound?
A: Its IC50 is > 3000 nM.

Q: What about the IC50 (second compound 0.316 µM) of the same compound?
A: Its IC50 is > 3000 nM.

Q: What about the IC50 (second compound 1 µM) of the same compound?
A: The IC50 was 2020 nM.

Q: What about the IC50 (second compound 3.16 µM) of the same compound?
A: The IC50 was 443 nM.

Q: And the IC50 (second compound 10 µM)?
A: Its IC50 is 97.7 nM.

Q: What about the viability, T/C (second compound 0.0316 µM, first compound 0.00949 µM) of the same compound?
A: The viability, T/C was 85.5%.

Q: What about the viability, T/C (second compound 0.0316 µM, first compound 0.03 µM) of the same compound?
A: The viability, T/C was 99.6%.

Q: What about the viability, T/C (second compound 0.0316 µM, first compound 0.0949 µM) of the same compound?
A: The viability, T/C was 77.5%.

Q: What about the viability, T/C (second compound 0.0316 µM, first compound 0.3 µM) of the same compound?
A: The viability, T/C was 89%.

Q: And the viability, T/C (second compound 0.0316 µM, first compound 0.949 µM)?
A: Its viability, T/C is 82.9%.

Q: What about the viability, T/C (second compound 0.0316 µM, first compound 3 µM) of the same compound?
A: Its viability, T/C is 61.9%.

Q: And the viability, T/C (second compound 0.1 µM, first compound 0.00949 µM)?
A: The viability, T/C was 87.8%.

Q: What about the viability, T/C (second compound 0.1 µM, first compound 0.03 µM) of the same compound?
A: Its viability, T/C is 100%.

Q: What about the viability, T/C (second compound 0.1 µM, first compound 0.0949 µM) of the same compound?
A: Its viability, T/C is 87.2%.

Q: What about the viability, T/C (second compound 0.1 µM, first compound 0.3 µM) of the same compound?
A: Its viability, T/C is 93.7%.

Q: What about the viability, T/C (second compound 0.1 µM, first compound 0.949 µM) of the same compound?
A: Its viability, T/C is 84.6%.

Q: What about the viability, T/C (second compound 0.1 µM, first compound 3 µM) of the same compound?
A: The viability, T/C was 59.5%.

Q: What about the viability, T/C (second compound 0.316 µM, first compound 0.00949 µM) of the same compound?
A: Its viability, T/C is 86.4%.

Q: And the viability, T/C (second compound 0.316 µM, first compound 0.03 µM)?
A: Its viability, T/C is 93.7%.

Q: What about the viability, T/C (second compound 0.316 µM, first compound 0.0949 µM) of the same compound?
A: The viability, T/C was 87.2%.

Q: What about the viability, T/C (second compound 0.316 µM, first compound 0.3 µM) of the same compound?
A: Its viability, T/C is 81.4%.

Q: And the viability, T/C (second compound 0.316 µM, first compound 0.949 µM)?
A: The viability, T/C was 68.9%.

Q: What about the viability, T/C (second compound 0.316 µM, first compound 3 µM) of the same compound?
A: The viability, T/C was 59.7%.

Q: And the viability, T/C (second compound 1 µM, first compound 0.00949 µM)?
A: Its viability, T/C is 90.6%.

Q: What about the viability, T/C (second compound 1 µM, first compound 0.03 µM) of the same compound?
A: Its viability, T/C is 85%.

Q: And the viability, T/C (second compound 1 µM, first compound 0.0949 µM)?
A: Its viability, T/C is 73.4%.

Q: And the viability, T/C (second compound 1 µM, first compound 0.3 µM)?
A: The viability, T/C was 76.7%.

Q: And the viability, T/C (second compound 1 µM, first compound 0.949 µM)?
A: The viability, T/C was 64.5%.

Q: What about the viability, T/C (second compound 1 µM, first compound 3 µM) of the same compound?
A: Its viability, T/C is 42.1%.

Q: What about the viability, T/C (second compound 3.16 µM, first compound 0.00949 µM) of the same compound?
A: The viability, T/C was 62.6%.

Q: And the viability, T/C (second compound 3.16 µM, first compound 0.03 µM)?
A: The viability, T/C was 63.2%.

Q: What about the viability, T/C (second compound 3.16 µM, first compound 0.0949 µM) of the same compound?
A: The viability, T/C was 57.4%.

Q: What about the viability, T/C (second compound 3.16 µM, first compound 0.3 µM) of the same compound?
A: The viability, T/C was 50%.

Q: And the viability, T/C (second compound 3.16 µM, first compound 0.949 µM)?
A: Its viability, T/C is 47.3%.

Q: And the viability, T/C (second compound 3.16 µM, first compound 3 µM)?
A: Its viability, T/C is 36.5%.

Q: What about the viability, T/C (second compound 10 µM, first compound 0.00949 µM) of the same compound?
A: Its viability, T/C is 48.5%.

Q: And the viability, T/C (second compound 10 µM, first compound 0.03 µM)?
A: Its viability, T/C is 54.4%.

Q: What about the viability, T/C (second compound 10 µM, first compound 0.0949 µM) of the same compound?
A: Its viability, T/C is 52.2%.

Q: And the viability, T/C (second compound 10 µM, first compound 0.3 µM)?
A: The viability, T/C was 42.6%.

Q: What about the viability, T/C (second compound 10 µM, first compound 0.949 µM) of the same compound?
A: The viability, T/C was 36%.

Q: And the viability, T/C (second compound 10 µM, first compound 3 µM)?
A: Its viability, T/C is 28.2%.
